Broadly, the EC50 is the concentration at which the effect is half-maximal.

SMILES strings stand for the structures. The source made the active and inactive calls. The rule behind the calls is not given here.

The assay has as its system MRP1 cells, doxorubicin viability shift, 10 uM compound. The assay is described as follows: viability protection against doxorubicin, MRP-1 line – cell-based, doxorubicin EC50 shift, dose response (AID 844). Conditions: for EC50: measured here: doxorubicin EC50 with compound.

Take `COc1ccc(C2CC(c3ccc(Cl)cc3Cl)Nc3nc(N)nn32)cc1OC` (configuration not stated): the fold increase in Dox EC50 was 1.05 (inactive) and the EC50 was 5.68 µM.

For `C=CCc1c(C)nc(-c2ccccc2)nc1N/N=C(\C)c1ccccc1`, the fold increase in Dox EC50 is 0.43 (inactive) and the half-maximal effective concentration (EC50) turned out to be 2.34 µM.

Turning to `Cc1nc(=O)c(-c2ccccc2)c(C)n1-c1ccc(C(=O)O)cc1`, the fold increase in Dox EC50 was 1.3 (inactive) and the EC50 is 7.02 µM.

Turning to `O=C1CC(N2CCN(c3nc4ccccc4s3)CC2)C(=O)N1c1ccc(F)cc1` (configuration not stated), the fold increase in Dox EC50 is 1.18 (inactive) and the EC50 came to 6.38 µM.

With `COc1ccc(Cc2nnc(NC(=O)c3c(-c4ccccc4)noc3C)s2)cc1OC`, the fold increase in Dox EC50 is 0.52 (inactive) and the EC50 was found to be 2.79 µM.

As to `COc1ccc(-n2ncc3c(=O)n(CC(=O)N4c5ccccc5CC4C)cnc32)cc1` (configuration not stated), the fold increase in Dox EC50 was 0.82 (inactive) and the EC50 amounted to 4.44 µM.

`CC(Oc1ccc(Cl)cc1Cl)C(=O)NC1CCSC1=O` (configuration not stated): the fold increase in Dox EC50 is 1.98 and the EC50 was 10.7 µM.

On to `COC1(OC)C(=N/O)/C(=N\O)CCC1O` (configuration not stated), for which the fold increase in Dox EC50 is 0.77 (inactive) and the EC50 was 4.16 µM.

Consider `OCCN=C1CCCc2c1[nH]c1ccc(Br)cc21`, for which the fold increase in Dox EC50 was 0.84 (inactive) and the EC50 is 4.56 µM.

In the case of `COc1ccc(/C=N/Nc2cc(C)nc(-n3nc(C)cc3C)n2)cc1`, the fold increase in Dox EC50 was 0.12 (inactive) and the EC50 is 0.656 µM.

In the case of `CCc1ccc(NC(=O)Cn2c(=O)oc3cc(S(=O)(=O)N4CCOCC4)ccc32)cc1`, the fold increase in Dox EC50 is 1 (inactive) and the EC50 was found to be 5.4 µM.

For the molecule `CCCCCOc1ccc(CSc2ncn[nH]2)cc1`, the fold increase in Dox EC50 is 0.68 (inactive) and the EC50 was 3.69 µM.

In the case of `CC(C)Cn1c2c(c(O)c(C(=O)Nc3nccs3)c1=O)CCCC2`, the fold increase in Dox EC50 was 0.83 (inactive) and the EC50 amounted to 4.48 µM.

Regarding `O=C(CSc1nc2ccccc2o1)NCc1ccc2c(c1)OCO2`, the fold increase in Dox EC50 is 1.15 (inactive) and the EC50 worked out at 6.23 µM.

Regarding `Cc1ccc(N2C(=O)Nc3ccc(Br)cc3C2(O)C(=O)NCCCN(C)C)cc1C` (configuration not stated), the fold increase in Dox EC50 was 0.69 (inactive) and the EC50 was 3.72 µM.

Take `O=C(COc1ccc2oc3c(c2c1)CCCC3)Nc1ccccn1`: the fold increase in Dox EC50 was 1.27 (inactive) and the EC50 came out at 6.85 µM.

For the molecule `Cc1cc(C)nc(NN2C(=O)/C(=C/c3ccc(O)cc3)SC2=S)n1`, the fold increase in Dox EC50 was 1.39 (inactive) and the concentration giving a half-maximal response (EC50) turned out to be 7.51 µM.

In the case of `C=C1c2cc(CC)ccc2NC(=O)N1c1ccc(C)cc1`, the fold increase in Dox EC50 is 0.44 (inactive) and the EC50 was 2.37 µM.

For the molecule `CCC(Sc1nccn1C)C(=O)Nc1nnc(C)s1` (configuration not stated), the fold increase in Dox EC50 is 1.01 (inactive) and the EC50 stood at 5.43 µM.

Consider `CC(C)(C)C1CCc2c(sc(NC(=O)c3cccs3)c2C(=O)N2CCCCC2)C1` (configuration not stated), for which the fold increase in Dox EC50 is 0.96 (inactive) and the EC50 amounted to 5.2 µM.

On to `O=C1/C(=C\c2ccco2)SC(=S)N1c1ccc(O)cc1`, for which the fold increase in Dox EC50 is 0.34 (inactive) and the EC50 amounted to 1.84 µM.

Consider `O=C1CSC(=S)N1N=C1CCCCCC1`, for which the fold increase in Dox EC50 is 0.92 (inactive) and the EC50 was 4.99 µM.

For the molecule `CCC1(C)Cc2c(sc3nnn(Cc4ccccc4Cl)c(=O)c23)CO1` (configuration not stated), the fold increase in Dox EC50 is 0.81 (inactive) and the EC50 stood at 4.35 µM.

`CC(=O)c1ccc(NC(=O)CN2C(=O)/C(=C/C(C)=C/c3ccccc3)SC2=S)cc1`: the fold increase in Dox EC50 was 0.62 (inactive) and the EC50 amounted to 3.36 µM.

For the molecule `Cc1ccccc1NC(=O)CC1SC(=O)N(c2ccccc2)C1=O` (configuration not stated), the fold increase in Dox EC50 is 1.35 (inactive) and the 50% effective concentration (EC50) was found to be 7.29 µM.

As for `Cc1[nH]c2ccccc2c1C(=O)C(=O)NCCC1=CCCCC1`, the fold increase in Dox EC50 is 0.98 (inactive) and the EC50 came out at 5.3 µM.

(Values after PubChem BioAssay AID844 (SRMLSC, 2007).)
